Laboratory results as given in US20050014215A1, “Method and medium for the detecting/identifying microorganisms with esterase and/or r osidase and/or peptidase and/or sulfatase and/or phosphatase activity” (priority 2000, published 2005).

Tests used:
[1] = Substrate solubility with different FASE (Example 8); assay type: physicochemical
Experimental: Different stock solutions of substrate are prepared in DMSO in the presence of Tween® 20, Tween® 80 (polyethoxylated sorbitan monooleate), Tween® 60 (polyethoxylated sorbitan monostearate) or Tween® 65 (polyethoxylated sorbitan tristearate). A volume corresponding to a final concentration of 500 mg/l of substrate is then added to a supercooled gelled medium, namely MacConkey medium.

[2] = Appearance of stock solutions of 2-alizarin octanoate in solvent/Tween 20 (Example 7); assay type: physicochemical; details: 60% Tween 20
Experimental: The substrate tested is 1,2-dihydroxyanthraquinone octanoate (2-alizarin octanoate). Different stock solutions of substrate are prepared with DMF, DMSO, methanol or methoxyethanol as solvent and in the presence of Tween® 20 in all cases.

Substance	substrate solubility [1]	Appearance of the stock solution ([2]; 40% DMF)	Appearance of the stock solution ([2]; 40% DMSO)	Appearance of the stock solution ([2]; 40% methanol)	Appearance of the stock solution ([2]; 40% methoxyethanol)
polyethoxylated sorbitan monostearate (20 EO) [TWEEN® 60]	good substrate solubility	–	–	–	–
1,2-dihydroxyanthraquinone octanoate [2-alizarin octanoate]	–	total	precipitate	precipitate	total
polyethoxylated sorbitan monooleate (20 EO) [TWEEN® 80]	good substrate solubility	–	–	–	–
